Data reported in patent publication US20250171437A1 (Agios Pharmaceuticals,Inc., priority 2022, published 2025).

target: T1, human PAH with the R408W mutation (A375 R408W cells) (Homo sapiens, UniProt P00439, R408W); assay: Cell Based Phenylalanine Flux Assay; settings: A375 R408W cells; 24 hrs with compound, then 20 μM sepiapterin and 800 μM 13C9,15N-Phenylalanine for 4 hours; 13C-Tyrosine by LC-MS; average where tested multiple times
T1 construct: expressed in transfected cells
T1 sequence (P00439 1-452 R408W): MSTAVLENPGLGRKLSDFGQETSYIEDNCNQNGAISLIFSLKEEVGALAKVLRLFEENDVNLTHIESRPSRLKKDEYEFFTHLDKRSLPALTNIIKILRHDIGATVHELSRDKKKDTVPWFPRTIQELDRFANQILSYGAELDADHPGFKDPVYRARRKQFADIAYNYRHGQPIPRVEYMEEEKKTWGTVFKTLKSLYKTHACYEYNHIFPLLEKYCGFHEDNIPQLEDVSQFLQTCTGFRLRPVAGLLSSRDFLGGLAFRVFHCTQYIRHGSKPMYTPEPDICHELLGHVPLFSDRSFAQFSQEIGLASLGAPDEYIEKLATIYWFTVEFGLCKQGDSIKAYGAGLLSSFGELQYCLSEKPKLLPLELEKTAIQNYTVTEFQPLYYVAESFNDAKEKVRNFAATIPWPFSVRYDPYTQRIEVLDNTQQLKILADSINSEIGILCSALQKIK
How it was run: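 AC50 is derived from LC-MS of 13C-tyrosine in the media after a 4 h pulse of 800 μM 13C9,15N-phenylalanine plus 20 μM sepiapterin. The A375 R408W PAH cells had received duplicate 10-point, 2-fold compound dilutions (0.5% DMSO) for 24 h beforehand.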

AC50, 1000 to 5000 nM:
O=C(c1cnn2cc(N3CCC4(CC3)CC4)ccc12)N1CCc2[nH]cnc2[C@@H]1c1nc2c(F)cccc2o1 [Example 506, (R)-(6-(6-azaspiro[2.5]octan-6-yl)pyrazolo[1,5-a]pyridin-3-yl)(4-(4-fluorobenzo[d]oxazol-2-yl)-6,7-dihydro-1H-imidazo[4,5-c]pyridin-5(4H)-yl)methanone]
C[C@H](O)c1nc(C(F)F)c(C(=O)N2CCc3[nH]cnc3[C@@H]2c2nc3ccc(F)cc3o2)o1 [Example 232, (4-(difluoromethyl)-2-((S)-1-hydroxyethyl)oxazol-5-yl)((R)-4-(6-fluorobenzo[d]oxazol-2-yl)-6,7-dihydro-1H-imidazo[4,5-c]pyridin-5(4H)-yl)methanone]
Cn1cc(C(=O)N2CCc3[nH]cnc3[C@@H]2c2nc3cc(F)ccc3o2)c(C(F)F)n1 [Example 96, (R)-(3-(difluoromethyl)-1-methyl-1H-pyrazol-4-yl)(4-(5-fluorobenzo[d]oxazol-2-yl)-6,7-dihydro-1H-imidazo[4,5-c]pyridin-5(4H)-yl)methanone]
CC(C)(O)c1nc(C(F)F)c(C(=O)N2CCc3[nH]cnc3[C@@H]2c2nc3cc(Cl)ccc3o2)o1 [Example 376, (R)-(4-(5-chlorobenzo[d]oxazol-2-yl)-6,7-dihydro-1H-imidazo[4,5-c]pyridin-5(4H)-yl)(4-(difluoromethyl)-2-(2-hydroxypropan-2-yl)oxazol-5-yl)methanone]
Cc1ccc2nc([C@@H]3c4nc[nH]c4CCN3C(=O)c3nnc(-c4cnn(C)c4)o3)oc2c1 [Example 103, (S)-(5-(1-methyl-1H-pyrazol-4-yl)-1,3,4-oxadiazol-2-yl)(4-(6-methylbenzo[d]oxazol-2-yl)-6,7-dihydro-1H-imidazo[4,5-c]pyridin-5(4H)-yl)methanone]
O=C(c1nnc(-c2ccccn2)o1)N1CCc2[nH]cnc2[C@@H]1c1nc2cc(F)ccc2o1 [Example 40, (R)-(4-(5-fluorobenzo[d]oxazol-2-yl)-6,7-dihydro-1H-imidazo[4,5-c]pyridin-5(4H)-yl)(5-(pyridin-2-yl)-1,3,4-oxadiazol-2-yl)methanone]
COc1cccc2nc([C@H]3c4nc[nH]c4CCN3C(=O)c3cc(C)nn3C)oc12 [Example 822, (R)-(1,3-dimethyl-1H-pyrazol-5-yl)(4-(7-methoxybenzo[d]oxazol-2-yl)-6,7-dihydro-1H-imidazo[4,5-c]pyridin-5(4H)-yl)methanone]

AC50, ≤ 500 nM:
CC(C)(C#N)c1nc(C(F)F)c(C(=O)N2CCc3[nH]cnc3[C@H]2c2nc3cc(F)ccc3o2)o1 [Example 159, (S)-2-(4-(difluoromethyl)-5-(4-(5-fluorobenzo[d]oxazol-2-yl)-4,5,6,7-tetrahydro-1H-imidazo[4,5-c]pyridine-5-carbonyl)oxazol-2-yl)-2-methylpropanenitrile]
CC(C)(O)c1nc(C(F)F)c(C(=O)N2CCc3[nH]cnc3[C@H]2c2nc3cccc(OC(F)(F)F)c3o2)o1 [Example 529, (S)-(4-(difluoromethyl)-2-(2-hydroxypropan-2-yl)oxazol-5-yl)(4-(7-(trifluoromethoxy)benzo[d]oxazol-2-yl)-6,7-dihydro-1H-imidazo[4,5-c]pyridin-5(4H)-yl)methanone]
O=C(c1cnn2cc(-c3ccccn3)ccc12)N1CCc2[nH]cnc2[C@H]1c1nc2cccc(F)c2o1 [Example 451, (S)-(4-(7-fluorobenzo[d]oxazol-2-yl)-6,7-dihydro-1H-imidazo[4,5-c]pyridin-5(4H)-yl)(6-(pyridin-2-yl)pyrazolo[1,5-a]pyridin-3-yl)methanone]
O=C(c1oc(C2(O)CCC2)nc1C(F)F)N1CCc2[nH]cnc2[C@H]1c1nc2cc(F)ccc2o1 [Example 689, (S)-(4-(difluoromethyl)-2-(1-hydroxycyclobutyl)oxazol-5-yl)(4-(5-fluorobenzo[d]oxazol-2-yl)-6,7-dihydro-1H-imidazo[4,5-c]pyridin-5(4H)-yl)methanone]
Cn1ccc(-c2nnc(C(=O)N3CCc4[nH]cnc4[C@H]3c3nc4cccc(F)c4o3)o2)n1 [Example 337, (S)-(4-(7-fluorobenzo[d]oxazol-2-yl)-6,7-dihydro-1H-imidazo[4,5-c]pyridin-5(4H)-yl)(5-(1-methyl-1H-pyrazol-3-yl)-1,3,4-oxadiazol-2-yl)methanone]
Cc1ncoc1C(=O)N1CCc2[nH]cnc2[C@H]1c1nc2ccccc2o1 [Example 793, (S)-(4-(benzo[d]oxazol-2-yl)-6,7-dihydro-1H-imidazo[4,5-c]pyridin-5(4H)-yl)(4-methyloxazol-5-yl)methanone]
Cc1cccc2nc([C@@H]3c4nc[nH]c4CCN3C(=O)c3ocnc3C(F)F)oc12 [Example 393, (S)-(4-(difluoromethyl)oxazol-5-yl)(4-(7-methylbenzo[d]oxazol-2-yl)-6,7-dihydro-1H-imidazo[4,5-c]pyridin-5(4H)-yl)methanone]
O=C(c1oc(-c2ccc(F)cn2)nc1C(F)F)N1CCc2[nH]cnc2[C@H]1c1nc2cccc(F)c2o1 [Example 632, (S)-(4-(difluoromethyl)-2-(5-fluoropyridin-2-yl)oxazol-5-yl)(4-(7-fluorobenzo[d]oxazol-2-yl)-6,7-dihydro-1H-imidazo[4,5-c]pyridin-5(4H)-yl)methanone]
O=C(c1oc(-c2ccc(F)cn2)nc1C(F)F)N1CCc2[nH]cnc2[C@@H]1c1nc2cccc(F)c2o1 [Example 631, (R)-(4-(difluoromethyl)-2-(5-fluoropyridin-2-yl)oxazol-5-yl)(4-(7-fluorobenzo[d]oxazol-2-yl)-6,7-dihydro-1H-imidazo[4,5-c]pyridin-5(4H)-yl)methanone]
CC(C)n1nccc1C(=O)N1CCc2[nH]cnc2[C@H]1c1nc2ccccc2o1 [Example 752, (S)-(4-(benzo[d]oxazol-2-yl)-6,7-dihydro-1H-imidazo[4,5-c]pyridin-5(4H)-yl)(1-isopropyl-1H-pyrazol-5-yl)methanone]
Cn1cnc(-c2nc(C(F)F)c(C(=O)N3CCc4[nH]cnc4[C@H]3c3nc4cccc(F)c4o3)o2)c1 [Example 892, (S)-(4-(difluoromethyl)-2-(1-methyl-1H-imidazol-4-yl)oxazol-5-yl)(4-(7-fluorobenzo[d]oxazol-2-yl)-1,4,6,7-tetrahydro-5H-imidazo[4,5-c]pyridin-5-yl)methanone]
COc1cccc2nc([C@@H]3c4nc[nH]c4CCN3C(=O)c3ccnn3C)oc12 [Example 749, (S)-(4-(7-methoxybenzo[d]oxazol-2-yl)-6,7-dihydro-1H-imidazo[4,5-c]pyridin-5(4H)-yl)(1-methyl-1H-pyrazol-5-yl)methanone]

AC50, 500 to 1000 nM:
Cn1cc(C(=O)N2CCc3[nH]cnc3[C@H]2c2nc3cc(F)ccc3o2)c(C(F)F)n1 [Example 95, (S)-(3-(difluoromethyl)-1-methyl-1H-pyrazol-4-yl)(4-(5-fluorobenzo[d]oxazol-2-yl)-6,7-dihydro-1H-imidazo[4,5-c]pyridin-5(4H)-yl)methanone]
O=C(c1cnc(-c2ccccn2)o1)N1CCc2[nH]cnc2[C@H]1c1nc2cc(F)ccc2o1 [Example 11, (S)-(4-(5-fluorobenzo[d]oxazol-2-yl)-6,7-dihydro-1H-imidazo[4,5-c]pyridin-5(4H)-yl)(2-(pyridin-2-yl)oxazol-5-yl)methanone]
Cc1ccc(-c2nnc(C(=O)N3CCc4[nH]cnc4[C@H]3c3nc4cc(F)ccc4o3)o2)nc1 [Example 126, (S)-(4-(5-fluorobenzo[d]oxazol-2-yl)-6,7-dihydro-1H-imidazo[4,5-c]pyridin-5(4H)-yl)(5-(5-methylpyridin-2-yl)-1,3,4-oxadiazol-2-yl)methanone]
O=C(c1oc(-c2cccnc2)nc1C(F)F)N1CCc2[nH]cnc2[C@@H]1c1nc2cc(F)ccc2o1 [Example 419, (R)-(4-(difluoromethyl)-2-(pyridin-3-yl)oxazol-5-yl)(4-(5-fluorobenzo[d]oxazol-2-yl)-6,7-dihydro-1H-imidazo[4,5-c]pyridin-5(4H)-yl)methanone]
O=C(c1nnc(-c2ccn(C(F)F)n2)o1)N1CCc2[nH]cnc2[C@@H]1c1nc2c(F)ccc(F)c2o1 [Example 815, (R)-(4-(4,7-difluorobenzo[d]oxazol-2-yl)-6,7-dihydro-1H-imidazo[4,5-c]pyridin-5(4H)-yl)(5-(1-(difluoromethyl)-1H-pyrazol-3-yl)-1,3,4-oxadiazol-2-yl)methanone]

same assay, conditions: A375 cells expressing R408W PAH; 24 hrs with compound, then 20 μM sepiapterin and 800 μM 13C9,15N-Phenylalanine for 4 hours; 13C-Tyrosine by LC-MS; average where tested multiple times

AC50, 1000 to 5000 nM:
COC(=O)Nc1ccc2c(C(=O)N3CCc4[nH]cnc4C3c3nc4cc(F)ccc4o3)cnn2c1 (centres unmarked)
NCc1ccc2c(C(=O)N3CCc4[nH]cnc4C3c3nc4cc(F)ccc4o3)cnn2c1 (centres unmarked)
O=C(CCc1cnco1)N1CCc2[nH]cnc2C1c1nc2cccc(F)c2o1 (centres unmarked)
CC(C)(O)c1nnc(C(=O)N2CCc3[nH]cnc3C2c2nc3cc(F)ccc3o2)o1 (centres unmarked)

AC50, ≥ 5000 nM:
Cc1ccc2oc(C3c4nc[nH]c4CCN3C(=O)c3nc(C)nn3C)nc2c1 (centres unmarked)
